We go through 23 compounds from PubChem BioAssay AID206 (DTP/NCI, 2004).

This test has as its system nude mice, HT29 intrarenal xenograft, tumor weight T/C. Nature of the test: NCI In Vivo Anticancer Drug Screen. Data for tumor model HT29;CX-1 Human Adenocarcinoma (MER+) (intrarenal inoculation) in NU/NU Swiss (nude) mice. To be noted: endpoint: mean tumor weight change, higher = larger tumour. In a few lines:
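Mice with transplanted tumors are dosed with compound while controls get vehicle only. Survival or tumor burden is then assessed per group, and the treated value is expressed relative to control.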

Setting [1] is: dose: 300.0 mg/kg/injection, schedule: Q04DX004 (sc), vehicle: Klucel (hydroxypropylcellulose) (HPC).
[2] abbreviates: dose: 600.0 mg/kg/injection, schedule: Q04DX004 (sc), vehicle: Klucel (hydroxypropylcellulose) (HPC).
Setting [3] is: dose: 1200.0 mg/kg/injection, schedule: Q04DX004 (sc), vehicle: Klucel (hydroxypropylcellulose) (HPC).
[4] abbreviates: dose: 50.0 mg/kg/injection, schedule: Q04DX004 (sc), vehicle: saline with Tween-80.
The mark [5] stands for this setting: dose: 100.0 mg/kg/injection, schedule: Q04DX004 (sc), vehicle: saline with Tween-80.
Where [6] appears, read: dose: 200.0 mg/kg/injection, schedule: Q04DX004 (sc), vehicle: saline with Tween-80.
[7] abbreviates: dose: 400.0 mg/kg/injection, schedule: Q04DX004 (sc), vehicle: saline with Tween-80.
The mark [8] stands for this setting: dose: 300.0 mg/kg/injection, schedule: Q04DX004 (sc), vehicle: saline with Tween-80.
Setting [9] is: dose: 600.0 mg/kg/injection, schedule: Q04DX004 (sc), vehicle: saline with Tween-80.
[10] abbreviates: dose: 1200.0 mg/kg/injection, schedule: Q04DX004 (sc), vehicle: saline with Tween-80.
[11] abbreviates: dose: 2400.0 mg/kg/injection, schedule: Q04DX004 (sc), vehicle: Klucel (hydroxypropylcellulose) (HPC).

Structures are written as SMILES. “And” between values parts separate entries of the source, which are not always exact repeats. Equal values may be shown once. Records with an inconclusive call do not appear. Starred links: 1 amine or outer side, 2 acyl side, 3 side chain; linkers in the order of their positions; H or OH if unused. Positions of bridges follow the written chain, without caps; N, C: chain ends. Non-standard residues stand in square brackets, D forms with d. Residues, ends and D or L forms follow the SMILES beside them. Chains are numbered I, II in the order given. *: point of attachment. Actinocin(1to9) = Cc1c2oc3c(C)ccc(C(=O)[*:2])c3nc-2c(C(=O)[*:1])c(N)c1=O; Trt = c1ccc(C(c2ccccc2)(c2ccccc2)*)cc1; NMeV = CN[CH](C(=O)O)C(C)C; Cbz = O=C(OCc1ccccc1)*; Aze = O=C(O)[CH]1CCN1; Sar = CNCC(=O)O

On to `CC1=CC2C(O)(CC(CO)=CC3C4C(C)(C)C4(OC(=O)c4ccccc4)C(OC(=O)c4ccccc4)C(C)C32O)C1=O` (stereo unspecified), for which the T/C (dose: 5.0 mg/kg/injection, schedule: Q04DX004 (sc), vehicle: saline with Tween-80) is 43 % of control.
As for `C1CCC2[N-]CC3CCCCC3[N-]CC3CCCCC3[N-]CC3CCCCC3[N-]CC2C1.[Cu]` (stereo unspecified), the T/C is, setting by setting: (dose: 6.25 mg/kg/injection, schedule: Q01DX010 (sc), vehicle: Klucel (hydroxypropylcellulose) (HPC)) 35 % of control; (dose: 12.5 mg/kg/injection, schedule: Q01DX010 (sc), vehicle: Klucel (hydroxypropylcellulose) (HPC)) 49 % of control; (dose: 25.0 mg/kg/injection, schedule: Q01DX010 (sc), vehicle: Klucel (hydroxypropylcellulose) (HPC)) 54 % of control.
Regarding `Cc1ccc(S(=O)(=O)OCOS(=O)(=O)c2ccc(C)cc2)cc1`, the T/C reads like this: (dose: 150.0 mg/kg/injection, schedule: Q04DX004 (sc), vehicle: Klucel (hydroxypropylcellulose) (HPC)) 118 % of control; under setting [1], 100 % of control; under setting [2], 53 % of control; under setting [3], 68 % of control.
Turning to `BrC[P+](CBr)(CBr)CBr`, the T/C runs as follows: under setting [4], 86 % of control; under setting [5], 57 % of control; under setting [6], 82 % of control; under setting [7], 103 % of control.
In the case of `CCCC(=O)OCc1cc(=O)n(C)c2c3c4c(cc12)c(C)cc(=O)n4CO3`, the T/C (dose: 200.0 mg/kg/injection, schedule: Q01DX010 (sc), vehicle: Klucel (hydroxypropylcellulose) (HPC)) is 71 % of control.
On to `C/C(=N\N=C(/[Se])N1CC2CCC(CC2)C1)c1ccccn1`, for which the T/C (dose: 6.25 mg/kg/injection, schedule: Q04DX004 (sc), vehicle: Klucel (hydroxypropylcellulose) (HPC)) was 60 % of control; the T/C (dose: 12.5 mg/kg/injection, schedule: Q04DX004 (sc), vehicle: Klucel (hydroxypropylcellulose) (HPC)) is 83 % of control; the T/C (dose: 25.0 mg/kg/injection, schedule: Q04DX004 (sc), vehicle: Klucel (hydroxypropylcellulose) (HPC)) was 81 % of control; the T/C (dose: 50.0 mg/kg/injection, schedule: Q04DX004 (sc), vehicle: Klucel (hydroxypropylcellulose) (HPC)) is 86 % of control.
In the case of `Cc1ccc(N)c(N)c1`, the T/C is, setting by setting: under setting [6], 151 % of control; under setting [7], 85 % of control; (dose: 800.0 mg/kg/injection, schedule: Q04DX004 (sc), vehicle: saline with Tween-80) 124 % of control.
Regarding `CCC(CC)COC(=O)c1ccccc1C(=O)OCC(CC)CC`, the T/C is, setting by setting: under setting [8], 94 % of control; under setting [9], 53 % of control; under setting [10], 81 % of control; (dose: 2400.0 mg/kg/injection, schedule: Q04DX004 (sc), vehicle: saline with Tween-80) 71 % of control.
With `O=C1NCC(Br)C(=O)N1` (stereo unspecified), the T/C is 68 % of control (dose: 150.0 mg/kg/injection, schedule: Q04DX004 (sc), vehicle: saline with Tween-80); 50 % of control under setting [8]; 60 % of control under setting [9].
For `NCCc1ccc(O)c(O)c1`, the T/C (dose: 200.0 mg/kg/injection, schedule: Q01DX010 (sc), vehicle: saline) is 78 % of control.
Take `O=C(Nc1nncs1)c1cccs1`: the T/C is 61 % of control under setting [4]; 93 % of control under setting [5]; 72 % of control under setting [6]; 106 % of control under setting [8]; 95 % of control under setting [7]; 121 % of control under setting [9]. For the same compound, the T/C under setting [10] is 110 % of control.
In the case of `O=[N+]([O-])c1ccc(-n2[nH]nnc2=S)cc1`, the T/C by setting is: (dose: 100.0 mg/kg/injection, schedule: Q04DX004 (sc), vehicle: Klucel (hydroxypropylcellulose) (HPC)) 94 % of control; (dose: 200.0 mg/kg/injection, schedule: Q04DX004 (sc), vehicle: Klucel (hydroxypropylcellulose) (HPC)) 92 % of control; (dose: 400.0 mg/kg/injection, schedule: Q04DX004 (sc), vehicle: Klucel (hydroxypropylcellulose) (HPC)) 96 % of control; (dose: 800.0 mg/kg/injection, schedule: Q04DX004 (sc), vehicle: Klucel (hydroxypropylcellulose) (HPC)) 80 % of control.
Regarding `CCCNC1=C(C)C(=O)C2=C(C1=O)[C@H](COC(N)=O)[C@]1(OC)[C@@H]3N[C@@H]3CN21`, the T/C is 78 % of control (dose: 6.0 mg/kg/injection, schedule: Q04DX003 (sc), vehicle: saline) and 1 % of control (dose: 12.0 mg/kg/injection, schedule: Q04DX003 (sc), vehicle: saline).
As for `O=c1[nH]cnc2n[nH]nc12`, the T/C under setting [1] was 94 % of control, the T/C under setting [2] was 50 % of control and the T/C under setting [11] was 30 % of control.
Take `O=c1ssc(=Nc2ccccc2)n1-c1ccccc1`: the T/C under setting [1] was 88 % of control, the T/C under setting [2] was 75 % of control, the T/C under setting [3] is 98 % of control and the T/C under setting [11] was 189 % of control.
In the case of `COc1ccc(CC2C(=O)NC(C)C(=O)N(C)C3Cc4ccc(cc4)Oc4cc(ccc4O)CC(C(=O)NC(C)C(=O)NC(C)C(=O)N2C)N(C)C3=O)cc1` (stereo unspecified), the T/C is, setting by setting: (dose: 1.0 mg/kg/injection, schedule: Q04DX004 (sc), vehicle: saline with Tween-80) 59 % of control; (dose: 2.0 mg/kg/injection, schedule: Q04DX004 (sc), vehicle: saline with Tween-80) 64 % of control; (dose: 4.0 mg/kg/injection, schedule: Q04DX004 (sc), vehicle: saline with Tween-80) 70 % of control; (dose: 8.0 mg/kg/injection, schedule: Q04DX004 (sc), vehicle: saline with Tween-80) 56 % of control and 68 % of control; (dose: 16.0 mg/kg/injection, schedule: Q04DX004 (sc), vehicle: saline with Tween-80) 70 % of control.
In the case of `COc1ccc(S(=O)(=O)N/N=C/C(=O)O)cc1`, the T/C is, setting by setting: (dose: 25.0 mg/kg/injection, schedule: Q04DX004 (sc), vehicle: saline with Tween-80) 94 % of control; under setting [4], 90 % of control and 102 % of control; under setting [5], 59 % of control and 82 % of control.
As to `COC(=O)C(CSC(c1ccccc1)(c1ccccc1)c1ccccc1)NC(=O)C(CC(N)=O)NC(=O)OCc1ccccc1` (stereo not drawn) (Cbz-Asn-Cys(Trt)-OMe; configuration not given here), the T/C is 63 % of control (dose: 150.0 mg/kg/injection, schedule: Q04DX004 (sc), vehicle: distilled water + Tween-80); 69 % of control (dose: 300.0 mg/kg/injection, schedule: Q04DX004 (sc), vehicle: distilled water + Tween-80); 81 % of control (dose: 600.0 mg/kg/injection, schedule: Q04DX004 (sc), vehicle: distilled water + Tween-80); 83 % of control (dose: 1200.0 mg/kg/injection, schedule: Q04DX004 (sc), vehicle: distilled water + Tween-80).
Consider `CC(C)[NH-].CC(C)[NH-].[Cl][Pt+2][Cl]`, for which the T/C (dose: 37.5 mg/kg/injection, schedule: Q04DX004 (sc), vehicle: dextrose) was 58 % of control; the T/C (dose: 75.0 mg/kg/injection, schedule: Q04DX004 (sc), vehicle: dextrose) is 43 % of control; the T/C (dose: 150.0 mg/kg/injection, schedule: Q04DX004 (sc), vehicle: dextrose) is 21 % of control.
`C[C@]12CCC(=O)C=C1CC[C@@H]1[C@@H]2[C@@H](O)C[C@@]2(C)[C@H]1CC[C@]2(O)C(=O)CO`: the T/C under setting [2] is 18 % of control and 26 % of control.
For `CN(C)c1nc(N(C)C)nc(N(C)C)n1`, the T/C reads like this: (dose: 15.0 mg/kg/injection, schedule: Q01DX010 (sc), vehicle: saline with Tween-80) 90 % of control; (dose: 30.0 mg/kg/injection, schedule: Q01DX010 (sc), vehicle: saline with Tween-80) 81 % of control and 101 % of control and 222 % of control.
`Cc1c2oc3c(C)ccc(C(=O)NC4C(=O)NC(C(C)C)C(=O)N5CCCC5C(=O)N(C)CC(=O)N(C)C(C(C)C)C(=O)OC4C)c3nc-2c(C(=O)NC2C(=O)NC(C(C)C)C(=O)N3CCC3C(=O)N(C)CC(=O)N(C)C(C(C)C)C(=O)OC2C)c(N)c1=O` (stereo unspecified) (I: TV[Aze][Sar][NMeV] / II: TVP[Sar][NMeV]; ester I:1-I:C, II:1-II:C; linker I:N-II:N via Actinocin(1to9); configuration not given here): the T/C (dose: 0.5 mg/kg/injection, schedule: Q04DX004 (sc), vehicle: saline + alcohol) is 59 % of control and the T/C (dose: 1.0 mg/kg/injection, schedule: Q04DX004 (sc), vehicle: saline + alcohol) was 30 % of control.
Turning to `CN(C=O)C(C(=O)Nc1cccc2c(OC(=O)C(N(C)C=O)(N(C)C=O)N(C)C=O)c(N=Nc3ccc(S(=O)(=O)Nc4nccs4)cc3)cc(N=Nc3ccc(S(=O)(=O)Nc4nccs4)cc3)c12)(N(C)C=O)N(C)C=O` (tested in a mixture with another compound), the T/C runs as follows: under setting [8], 91 % of control; under setting [9], 103 % of control; under setting [10], 80 % of control.
